PubChem BioAssay (NCI)
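Following 48 hours of exposure in 96-well plates, responses at five concentrations were used to interpolate endpoints linearly. At the GI50, growth is halved. The concentration for full growth arrest is given as TGI.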

Experiments:
Assay in all cases: inhibition of tumour cell growth, NCI panel, 48 h
BT-549 breast = system: BT-549 breast
HS 578T breast = system: HS 578T breast
KM12 colon = system: KM12 colon
LOX IMVI melanoma = system: LOX IMVI melanoma
OVCAR-5 ovarian = system: OVCAR-5 ovarian
SF-268 CNS = system: SF-268 CNS
SF-539 CNS = system: SF-539 CNS
SK-MEL-2 melanoma = system: SK-MEL-2 melanoma
UACC-257 melanoma = system: UACC-257 melanoma
UO-31 renal = system: UO-31 renal

| SMILES | GI50 (BT-549 breast) | TGI (BT-549 breast) | GI50 (HS 578T breast) | TGI (HS 578T breast) | GI50 (KM12 colon) | TGI (KM12 colon) | GI50 (LOX IMVI melanoma) | TGI (LOX IMVI melanoma) | GI50 (OVCAR-5 ovarian) | TGI (OVCAR-5 ovarian) | GI50 (SF-268 CNS) | TGI (SF-268 CNS) | GI50 (SF-539 CNS) | TGI (SF-539 CNS) | GI50 (SK-MEL-2 melanoma) | TGI (SK-MEL-2 melanoma) | GI50 (UACC-257 melanoma) | TGI (UACC-257 melanoma) | GI50 (UO-31 renal) | TGI (UO-31 renal) |
| --- | --- | --- | --- | --- | --- | --- | --- | --- | --- | --- | --- | --- | --- | --- | --- | --- | --- | --- | --- | --- |
| C=CCN1CC(=O)N2[C@@H](Cc3ccc(O)cc3F)C(=O)N(Cc3cccc(N4CC(N5CCN(CC)CC5)C4)n3)C[C@@H]2N1C(=O)NCc1ccccc1 | 0.111 µM | > 54.1 µM | 0.0279 µM | 0.15 µM | 0.111 µM | > 100 µM | 0.0339 µM | 0.584 µM | 0.0354 µM | > 100 µM | 0.0348 µM | > 100 µM | 0.0317 µM | 0.288 µM | 0.0435 µM | 0.476 µM | 0.0648 µM | 12.9 µM | 0.919 µM | > 100 µM |
| COC(=O)c1cc2c(cc1Cl)SC1=NN(C)C(N(C)C)N1S2(=O)=O (stereo not given) | > 100 µM | > 100 µM | > 100 µM | > 100 µM | > 100 µM | > 100 µM | > 100 µM | > 100 µM | > 100 µM | > 100 µM | > 100 µM | > 100 µM | > 100 µM | > 100 µM | > 100 µM | > 100 µM | > 100 µM | > 100 µM | > 100 µM | > 100 µM |
| Cc1nc(C(=O)O)c2ccccc2n1 |  |  |  |  |  | > 100 µM |  |  |  | > 100 µM |  | > 100 µM |  | > 100 µM |  | > 100 µM |  | > 100 µM |  | > 100 µM |
| CC(C)=CC(=O)N(C)C1C2CN3CCC(O2)C13 (stereo not given) |  |  |  |  |  | > 100 µM |  | > 100 µM |  | > 100 µM |  | > 100 µM |  | > 100 µM |  | > 100 µM |  | > 100 µM |  | > 100 µM |
| N#Cc1ccc(C=NC23CC4CC(CC(C4)C2)C3)cc1 |  |  |  |  |  | > 100 µM |  | > 100 µM |  | > 100 µM |  | > 100 µM |  | > 100 µM |  | > 100 µM |  | > 100 µM |  | > 100 µM |
| Cc1cc(C)nc(SC2=C(Nc3cc(Cl)ccc3O)C(=O)N(Cc3ccccc3)C2=O)n1 | 63 µM | > 160 µM | 28.1 µM | 87.5 µM | 27.4 µM | 73.8 µM | 27.2 µM | 89.4 µM | > 160 µM | > 160 µM | 61.2 µM | > 160 µM | > 160 µM | > 160 µM | 49.5 µM | > 160 µM | 32.5 µM | 102 µM | 80.7 µM | > 160 µM |
| CCCCCCCCCCCCC(Br)C(=O)NCC(N)=O (stereo not given) |  |  |  |  |  | 28.8 µM |  | 42.1 µM |  | 57.3 µM |  | 17.8 µM |  | 27.7 µM |  | 26.4 µM |  | 24.7 µM |  | 6.92 µM |
| O=S(=O)(/C=C/C(=C/c1ccccc1)S(=O)(=O)c1ccccc1)c1ccccc1 |  |  |  |  |  | 5.42 µM |  | 2.08 µM |  |  |  | 4.1 µM |  | 3.15 µM |  | 3.54 µM |  | 2.89 µM |  | 3.22 µM |
| CCc1cccc(C)c1NC(=O)c1sc2nc3c(cc2c1N)C(=O)CCC3 | 8.58 µM | > 100 µM | 2.57 µM | > 100 µM | 0.455 µM | > 100 µM | 0.742 µM | > 100 µM | 2.74 µM | > 100 µM | 3.06 µM | > 100 µM |  |  | 0.365 µM | 27.3 µM | 12.5 µM | 76.1 µM | 2.25 µM | 99.8 µM |
| O=C(O)c1cccc(C(=O)O)c1S(=O)Cc1ccccc1 (stereo not given) |  | > 100 µM |  | > 100 µM |  | > 100 µM |  | > 100 µM |  | > 100 µM |  | > 100 µM |  | > 100 µM |  | > 100 µM |  | > 100 µM |  | > 100 µM |
| O=C(CCCCCCN1CC(=O)N2[C@@H](c3ccc(Cl)c(Cl)c3)c3[nH]c4ccccc4c3C[C@H]2C1=O)NO | 4.41 µM | 14.2 µM | 3.52 µM | 15.6 µM | 3.8 µM | 9.29 µM |  |  | 3.86 µM | 13.4 µM | 4.66 µM | 10.5 µM | 3.76 µM | 9.27 µM | 4.07 µM | 13.2 µM | 3.81 µM | 18.2 µM | 3.52 µM | 8.86 µM |
| CC1(C)CC(=O)C2=C(C1)OC(N)=C(c1nc(-c3ccccc3)cs1)C2c1ccc(Br)cc1 (stereo not given) |  |  | 38.5 µg/mL | > 150 µg/mL | 87.6 µg/mL | > 150 µg/mL | 124 µg/mL | > 150 µg/mL | > 150 µg/mL | > 150 µg/mL | 121 µg/mL | > 150 µg/mL | 94.8 µg/mL | > 150 µg/mL | 79 µg/mL | > 150 µg/mL | 97.1 µg/mL | > 150 µg/mL |  |  |
| CC1=C(CC(=O)c2cccc([N+](=O)[O-])c2)C(=O)c2ccccc2C1=O | 13.2 µM | 26.5 µM | 4.74 µM | 48.6 µM | 17.3 µM | 49.5 µM | 2.22 µM | 8.31 µM | 6.98 µM | 20.5 µM | 9.19 µM | 26.9 µM | 3.02 µM | 10.9 µM |  |  | 3.94 µM | 16.1 µM | 10.7 µM | 28.8 µM |
| N#CC(C#N)c1ccc(C(=O)N2CCC[C@H]2CO)cc1 |  |  |  |  |  | > 100 µM |  | > 100 µM |  | > 100 µM |  | > 100 µM |  | > 100 µM |  | > 100 µM |  | > 100 µM |  | > 100 µM |
| COCCNC(=O)C1C(=O)C(=O)N(CCOC)C1=O (stereo not given) |  |  |  |  |  |  |  | > 100 µM |  | > 100 µM |  | > 100 µM |  | > 100 µM |  | > 100 µM |  | > 100 µM |  | > 100 µM |
| Cc1cc(C)nc(NS(=O)(=O)c2ccc(Nc3c4ccccc4nc4c(C(=O)Nc5ccc(S(=O)(=O)N=C(N)N)cc5)cccc34)cc2)n1 |  |  |  |  |  | > 100 µM |  | > 100 µM |  | > 100 µM |  | > 100 µM |  | > 100 µM |  | > 100 µM |  | > 100 µM |  | > 100 µM |
| COc1cc2c(cc1OCCCCN1CCN(C(=S)SCCC(C#N)(c3ccccc3)c3ccccc3)CC1)N=C[C@@H]1CCCN1C2=O | 1.42 µM | 8.84 µM |  |  | 1.39 µM | 3.78 µM |  |  | 2.47 µM | 5.38 µM |  |  | 1.69 µM | 3.27 µM | 1.04 µM | 2.35 µM | 1.97 µM | 4.17 µM | 0.593 µM | 2.09 µM |
